Consider two compounds from article PMC11071220, “Identification and characterization of a new potent inhibitor targeting CtBP1/BARS in melanoma cells” (Journal of Experimental & Clinical Cancer Research : CR, 2024).

As usually defined, the Kd is the free concentration of one partner at which half of the binding sites on the other are occupied at equilibrium, for simple one-to-one binding.

In test [1] the target is T1, CtBP1/BARS (Rattus norvegicus, UniProt Q9Z2F5). The test is described as follows: ITC; also tryptophan fluorescence quenching (Kd […]). Format: binding. Details: His-CtBP1/BARS wt, full-length (CtBP1-S/BARS). A general note: Isothermal titration calorimetry measures the heat released or taken up as one component is titrated into another.
Test [2] has as its target T1, CtBP1/BARS. The test is described as follows: size-exclusion chromatography (dimer to tetramer shift, […] NAD+); pull-down of self-association. It counts as biochemical. In general terms: Size exclusion chromatography separates by hydrodynamic size, large species first.

Consider `O=C(Nc1ccc([N+](=O)[O-])cc1)Nc1ccc(S(=O)(=O)Nc2ccc(Cl)c(Cl)c2)cc1` [Comp.11, N-(3,4-dichlorophenyl)-4-{[(4-nitrophenyl)carbamoyl]amino}benzenesulfonamide], for which the Kd in test [1] was 660 ± 200 nM.
With `NC(=O)c1ccc[n+]([C@@H]2O[C@H](COP(=O)([O-])OP(=O)(O)OC[C@H]3O[C@@H](n4cnc5c(N)ncnc54)[C@H](O)[C@@H]3O)[C@@H](O)[C@H]2O)c1` [NAD+], the “size-exclusion chromatography (dimer to tetramer shift, 100 μM NAD+); pull-down” value in test [2] is on record as “The addition of NAD^+ shifts the elution patterns so that the majority of CtBP1/BARS elutes as a tetramer”.
